“And” between values parts separate entries of the source, which are not always exact repeats. Equal values may be shown once.
How the values were obtained:
[1] = Pharmacokinetic evaluation of 2-BHA of form A in rats by intragastric administration; assay type: in vivo, SD rats; details: 100 mg/kg intragastric, individual rats 1♂-6♀;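 also: plasma concentration in ng/mL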
Protocol: SD rats, half male and half female, fasted overnight, 6 rats/group, were given 2-tert-butyl-4-methoxyphenol suspended in Tween 80 (2-BHA of form A prepared by Example 4) by intragastric administration, the dose being 100 mg/kg body weight. […]

[2] = Accelerated stability test for bulk drug; assay type: physicochemical; details: for Appearance / Content / Related substance: bulk drug, 40° C.±2° C., RH 75%±5%
Protocol: (§1) An accelerated stability test for bulk drug was carried out directly from the crystal powder. An accelerated stability test for formulation was carried out on tablets.

[3] = Accelerated stability test for formulation (tablets); assay type: physicochemical; details: conclusion from Tables 3 and 4
Protocol: as §1
Preparation process of formulation: form A of 2-tert-butyl-4-methoxyphenol (2-BHA) (form A of 2-BHA prepared in Example 4), microcrystalline cellulose, lactose and other auxiliary materials respectively were screened through 100 mesh, respectively for use. The prescription amount of form A of 2-tert-butyl-4-methoxyphenol, microcrystalline cellulose, lactose and other auxiliary materials were fully mixed according to the equal volume addition method. The above mixture was added to an aqueous solution of 2-3% polyvinylpyrrolidone under stirring, to obtain a soft material, which was screened through a 20-mesh sieve. The tablet weight regulator was adjusted to make the tablet weight being 250±10 mg, the hardness being 60-80 N, and then the tablet was compressed. After screening for dissolution, homogeneity and reproducibility and the like, the prescription was determined and 3 batches of samples were prepared.

[4] = Plasma concentration after intragastric administration in mice; assay type: in vivo
[5] = tested on: differentiation of monocytes into M2 macrophages; details: by inhibiting production of ROS; Cell Research 2013, 23:898-914; cited from earlier work
[6] = tested on: lung cancer in K-ras^LA2 model mice; details: Cell Research 2013, 23:898-914; cited from earlier work
[7] = Drug metabolism experiments (in vivo half-life)
Protocol: (§2) At the same time, it was found through drug metabolism experiments that the in vivo half-life of BHA was very short, only 30-60 minutes. […] Therefore, combining with the research results of literature on the metabolites of 2-tert-butyl-4-methoxyphenol (with DNA damaging effects, Food and Chemical Toxicology 1999, 37: 1027-1038), it can be inferred that 2-tert-butyl-4-methoxyphenol itself has an anti-tumor effect, and the interaction of its metabolite tert-butylhydroquinone (TBHQ) with DNA may be the cause of its side effects. BHA has the potential to be developed into a drug.

mice = test: Toxicology experiments in mice; assay type: in vivo
Protocol: as §2

[8] = Comparative study of antioxidant activity, 2-BHA vs 3-BHA; details: ratio to 3-BHA
Excerpt: (§3) However, the existing commercial BHA products are all mixtures of 2-tert-butyl-4-methoxyphenol (2-BHA) and 3-tert-butyl-4-methoxyphenol (3-BHA), with a content ratio of approximately 9:1-50:1. The inventors comparatively studied the antioxidant activities and macrophage polarization regulation activities of 2-tert-butyl-4-methoxyphenol and 3-tert-butyl-4-methoxyphenol. […] Therefore, the development of 2-tert-butyl-4-methoxyphenol as a medicine still needs to improve the purity.

macrophage polarization = test: Comparative study of macrophage polarization regulation activity, 2-BHA vs 3-BHA; assay type: cell-based; details: ratio to 3-BHA
Excerpt: as §3

[9] = tested on: M2 polarization of macrophages; details: CN 201610037849.5; cited from earlier work
[10] = tested on: lung cancer and breast cancer; details: mouse models with lung cancer and breast cancer; CN 201610037849.5; cited from earlier work
[11] = early studies, literature; cited from earlier work
[12] = 600 mg/kg administration in mice
[13] = 1100 mg/kg administration in mice

For `COc1ccc(O)c(C(C)(C)C)c1` [2-BHA of form A, 2-tert-butyl-4-methoxyphenol], the plasma concentration ([1]; 5 min after administration, female rats) was 80.026 ng/mL and 165.939 ng/mL and 77.996 ng/mL, the plasma concentration ([1]; 5 min after administration, male rats) was 159.617 ng/mL and 125.112 ng/mL and 147.531 ng/mL and the plasma concentration ([1]; 30 min, female rats) was 157.878 ng/mL and 371.466 ng/mL and 240.870 ng/mL. The plasma concentration ([1]; 30 min, male rats) was 694.651 ng/mL and 489.006 ng/mL and 359.028 ng/mL, the plasma concentration ([1]; 1 h, female rats) was 504.084 ng/mL and 603.120 ng/mL and 643.208 ng/mL and the plasma concentration ([1]; 1 h, male rats) was 560.980 ng/mL and 570.039 ng/mL. The plasma concentration ([1]; 2 h, female rats) was 687.296 ng/mL and 410.399 ng/mL and 199.206 ng/mL, the plasma concentration ([1]; 2 h, male rats) was 267.167 ng/mL and 267.234 ng/mL and 312.997 ng/mL and the plasma concentration ([1]; 4 h, female rats) was 283.840 ng/mL and 205.532 ng/mL and 146.191 ng/mL. For the same compound, the plasma concentration ([1]; 4 h, male rats) was 192.535 ng/mL and 63.401 ng/mL and 86.609 ng/mL, the plasma concentration ([1]; 8 h, female rats) was 78.447 ng/mL and 42.984 ng/mL and 121.700 ng/mL and the plasma concentration ([1]; 8 h, male rats) was 117.919 ng/mL and 27.328 ng/mL and 192.532 ng/mL. For the same compound, the plasma concentration ([1]; 24 h, BLLOQ = below the detection limit, female rats) was “BLLOQ”, the plasma concentration ([1]; 24 h, BLLOQ = below the detection limit, male rats) was “BLLOQ” and the concentration at 1 h ([1]; both sexes, SD, rat, plasma, oral, 100 mg/kg, 1 h) was 881 ng/mL. For the same compound, the Appearance ([2]; 0 month, listed as 20160808) was “white”, the Content ([2]; 0 month, listed as 20160808) was 99.5% and the Related substance ([2]; 0 month, listed as 20160808) was 0.34%. The Appearance ([2]; 0 month, listed as 20160904) was “white”, the Content ([2]; 0 month, listed as 20160904) was 99.8% and the Related substance ([2]; 0 month, listed as 20160904) was 0.14%. The Appearance ([2]; 0 month, listed as 20160908) was “white”, the Content ([2]; 0 month, listed as 20160908) was 99.6% and the Related substance ([2]; 0 month, listed as 20160908) was 0.34%. The Appearance ([2]; 1 month, listed as 20160808) was “white”, the Content ([2]; 1 month, listed as 20160808) was 99.7% and the Related substance ([2]; 1 month, listed as 20160808) was 0.22%. For the same compound, the Appearance ([2]; 1 month, listed as 20160904) was “white”, the Content ([2]; 1 month, listed as 20160904) was 99.7% and the Related substance ([2]; 1 month, listed as 20160904) was 0.21%. The Appearance ([2]; 1 month, listed as 20160908) was “white”, the Content ([2]; 1 month, listed as 20160908) was 99.6% and the Related substance ([2]; 1 month, listed as 20160908) was 0.31%. The Appearance ([2]; 2 month, listed as 20160808) was “white”, the Content ([2]; 2 month, listed as 20160808) was 99.4% and the Related substance ([2]; 2 month, listed as 20160808) was 0.19%. For the same compound, the Appearance ([2]; 2 month, listed as 20160904) was “white”, the Content ([2]; 2 month, listed as 20160904) was 99.3% and the Related substance ([2]; 2 month, listed as 20160904) was 0.39%. For the same compound, the Appearance ([2]; 2 month, listed as 20160908) was “white”, the Content ([2]; 2 month, listed as 20160908) was 99.5% and the Related substance ([2]; 2 month, listed as 20160908) was 0.29%. For the same compound, the Appearance ([2]; 3 month, listed as 20160808) was “white”, the Content ([2]; 3 month, listed as 20160808) was 99.5% and the Related substance ([2]; 3 month, listed as 20160808) was 0.35%. The Appearance ([2]; 3 month, listed as 20160904) was “white”, the Content ([2]; 3 month, listed as 20160904) was 99.3% and the Related substance ([2]; 3 month, listed as 20160904) was 0.35%. The Appearance ([2]; 3 month, listed as 20160908) was “white”, the Content ([2]; 3 month, listed as 20160908) was 99.6% and the Related substance ([2]; 3 month, listed as 20160908) was 0.25%. For the same compound, the “physical and chemical stability compared with commercially available BHA” value ([2]; fluidity, agglomeration, oxidation and colour change in the environment) was “better physical and chemical stability than commercially available BHA”, the “stability during the preparation process” value [3] was “better stability” and the “correlation of maximum plasma concentration and AUC with the administration dose” value [4] was “better correlation with the administration dose”. For the same compound, the “individual differences in plasma concentration” value [4] was “small individual differences in plasma concentration”.

In the case of `COc1ccc(O)c(C(C)(C)C)c1` [2-tert-butyl-4-methoxyphenol], the Appearance ([2]; 0 month) was “off-white”, the Content ([2]; 0 month) was 98.0% and the Related substance ([2]; 0 month) was 1.8%. The Appearance ([2]; 1 month) was “light yellowish”, the Content ([2]; 1 month) was 95.1% and the Related substance ([2]; 1 month) was 3.9%. The Appearance ([2]; 2 month) was “light yellowish +”, the Content ([2]; 2 month) was 92.1% and the Related substance ([2]; 2 month) was 8.8%. The Appearance ([2]; 3 month) was “light yellowish red”, the Content ([2]; 3 month) was 90.2% and the Related substance ([2]; 3 month) was 9.3%.

For `COc1cc(C(C)=O)ccc1O` [Apocynin], the “effect on differentiation of monocytes into M2 macrophages” value (shortened to “effect on differentiation”) [5] is given as “inhibit the differentiation of monocytes into M2 macrophages” and the “effect on occurrence of lung cancer” value [6] is given as “inhibiting the occurrence of lung cancer”.

For `COc1ccc(O)c(C(C)(C)C)c1` [BHA, 2-tert-butyl-4-methoxyphenol], the half-life [7] was 30 to 60 min, the “recovery from central effect” value (mice; [12]) was “recovered after half an hour” and the toxic effect seen (mice; [12]) was “only part of the “hangover”-like central effect could be seen”. For the same compound, the lethality (mice; [13]) was “half of the mice were lethal”, the “time until toxic reaction symptoms disappeared in the surviving mice” value (mice; [13]) was 30 to 60 min and the “toxic effect after long-term administration” value (mice; long-term low-dose administrations in mice for 2 years) was “no toxic effect”. For the same compound, the “antioxidant capacity relative to 3-tert-butyl-4-methoxyphenol” value [8] was 2-3 times, the “macrophage polarization regulation activity relative to 3-tert-butyl-4-methoxyphenol” value (macrophage polarization) was 5-100 times and the “effect on M2 polarization of macrophages” value [9] was “inhibiting the M2 polarization of macrophages”. The anti-tumor effect [10] was “anti-tumor proliferation and metastasis effects”, the “effect on differentiation” value [5] was “inhibit the differentiation of monocytes into M2 macrophages” and the “effect on occurrence of lung cancer” value [6] was “inhibiting the occurrence of lung cancer”. For the same compound, the carcinogenic effects [11] was “has carcinogenic effects”.

In the case of `CC(=O)N[C@@H](CS)C(=O)O` [NAC], the “effect on differentiation” value [5] is given as “inhibit the differentiation of monocytes into M2 macrophages” and the “effect on occurrence of lung cancer” value [6] is given as “inhibiting the occurrence of lung cancer”.

In the case of `CC1(C)CCCC(C)(C)N1[O]` [TEMPO], the “effect on differentiation” value [5] is given as “inhibit the differentiation of monocytes into M2 macrophages” and the “effect on occurrence of lung cancer” value [6] is given as “inhibiting the occurrence of lung cancer”.

From patent US11655201B2, “Method for preparing 2-tert-butyl-4-methoxyphenol and new crystal form thereof” (BIOMEDICAL ANALYSIS CENTER, ACADEMY OF MILITARY MEDICAL …, priority 2017, dated 2023)
